The test deals with M. tuberculosis H37Rv growth inhibition with meropenem. The test can be described thus: dose response, H37Rv, with and without meropenem (AID 434987).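 Further: growth over 7 days at 37 °C before Alamar Blue read on day 9.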
[1] abbreviates: M. tuberculosis H37Rv growth inhibition, measured here: IC50 without meropenem.
Setting [2] is: M. tuberculosis H37Rv growth inhibition, measured here: IC90 without meropenem.
The mark [3] stands for this setting: measured here: IC90 with meropenem.

pIC50: −log10 of the molar value. The source made the active and inactive calls. How the calls were made is not given here. Bounds are passed on as bounds.

The term IC50 denotes the concentration that inhibits the measured activity by half. Broadly, the pIC50 is −log10 of the IC50, conventionally taken in molar units. By IC90 is commonly meant the point of the concentration-response curve where the effect stands at 90%. A high value points to a need for much substance.

In the case of `CCOC(=O)c1c(C)[nH]c(C)c1C(=O)COC(=O)c1ccc(S(=O)(=O)N(CC)CC)cc1`, the IC50 was 92.6 µM (inactive). In addition, the pIC50 under setting [1] is < 4.00. In addition, under setting [2], the 90% effect concentration (IC90) is > 100 µM. In addition, the IC90 under setting [3] is > 100 µM.

`O=S(=O)(Nc1ccccc1)c1ccc2c(c1)CCO2`: the IC50 was > 100 µM (inactive). Further, the pIC50 under setting [1] was < 4.00. The IC90 under setting [2] was > 100 µM. Under setting [3], the IC90 is > 100 µM.

On to `CC(C(=O)Nc1nc2ccccc2[nH]1)N1C(=O)C2CC=CCC2C1=O` (stereo not drawn), for which the IC50 was > 100 µM (inactive). For the same compound, the pIC50 under setting [1] is < 4.00. In addition, the IC90 under setting [2] was > 100 µM. Moreover, under setting [3], the IC90 is > 100 µM.

As for `Cc1sc2nc(C(C)(C)C)oc(=O)c2c1C`, the IC50 was > 100 µM (inactive). In addition, the pIC50 under setting [1] is < 4.00. For the same compound, under setting [2], the concentration for an effect of 90% (IC90) was > 100 µM. In addition, the IC90 under setting [3] is > 100 µM.

As for `COc1ccc(OC)c2nc(-c3ccc4c(c3)OCO4)ccc12`, the pIC50 is 4.75. Also, under setting [1], the pIC50 is < 4.00. For the same compound, under setting [2], the IC90 is > 100 µM. The 90% effect concentration (IC90) under setting [3] is > 25 µM.

For the compound `COc1ccc(-c2csc(NC(C)c3nc4cc(Cl)c(Cl)cc4n3CCCO)n2)cc1` (stereo not drawn), the IC50 is 97.3 µM (inactive). For the same compound, under setting [1], the pIC50 is < 4.00. Further, under setting [2], the IC90 was > 100 µM. Besides, the IC90 under setting [3] is > 100 µM.

Regarding `N#Cc1ccc(C23CC4(C2)[C@H](CN(Cc2cccnc2)[C@@H]4c2ccccc2)C3c2ccccc2)cc1` (stereo partly drawn), the IC50 is 56.2 µM (inactive). The compound further had a negative logarithm of the IC50 (pIC50) under setting [1] of 4.14. Under setting [2], the IC90 was > 100 µM. In addition, the IC90 under setting [3] was > 100 µM.

On to `C/C(=N\NC(=O)c1cc2c(s1)CCC(C)C2)c1cccnc1` (stereo not drawn), for which the IC50 is > 100 µM (inactive). Under setting [1], the negative logarithm of the IC50 (pIC50) is < 4.00. The IC90 under setting [2] is > 100 µM. Also, under setting [3], the IC90 was > 100 µM.

Turning to `O=C(COc1ccc2ccccc2c1)Nc1nc2ccccc2[nH]1`, the pIC50 was 5.23. Under setting [1], this compound gave a pIC50 of 4.21. Also, under setting [2], the IC90 is > 100 µM. Further, the IC90 under setting [3] was > 100 µM.

On to `CC(C)OCc1c(C(=O)Nc2nccs2)oc2ccccc12`, for which the IC50 is 97.9 µM (inactive). Further, under setting [1], the pIC50 was < 4.00. Further, under setting [2], the IC90 is > 100 µM. Also, under setting [3], the IC90 is > 100 µM.

Regarding `CCCCNC(=O)c1onc(CSc2ccccc2C)c1C(=O)O`, the IC50 was 45.3 µM (inactive). In addition, the pIC50 under setting [1] was 4.09. Further, the IC90 under setting [2] was > 100 µM. The compound also came in with an IC90 under setting [3] of 50.6 µM.

Consider `Cc1c(C(=O)NC(=S)Nc2ccccc2N2CCCC2)cccc1[N+](=O)[O-]`, for which the IC50 is 63.5 µM (inactive). Besides, the pIC50 under setting [1] is 4.08. Further, under setting [2], the IC90 was > 100 µM. In addition, under setting [3], the IC90 was > 100 µM.

As for `O=C(Nc1ccccc1N1CCCC1)c1ccc2c(c1)OCO2`, the IC50 was 72.3 µM (inactive). Besides, under setting [1], the pIC50 is 4.06. Besides, the IC90 under setting [2] is > 100 µM. Also, under setting [3], the concentration for an effect of 90% (IC90) is > 100 µM.

With `Cc1ccc(C)c(SCc2noc(C(=O)NCC3CCCO3)c2C(=O)O)c1` (stereo not drawn), the IC50 was 44.3 µM (inactive). The pIC50 under setting [1] is 4.30. In addition, the IC90 under setting [2] is > 100 µM. Under setting [3], the concentration for an effect of 90% (IC90) was found to be 48 µM.

Regarding `NS(=O)(=O)c1ccc(O)c(NC(=O)c2ccc([N+](=O)[O-])o2)c1`, the IC50 is 12.7 µM (inactive). Moreover, the pIC50 under setting [1] is 4.57. In addition, the 90% effect concentration (IC90) under setting [2] was > 100 µM. Under setting [3], the IC90 was > 100 µM.

For `O=C(Cc1cccc2ccccc12)N/N=C/c1ccc(OC(=O)/C=C/c2ccco2)cc1`, the IC50 is 69 µM (inactive). Further, the pIC50 under setting [1] was < 4.00. The IC90 under setting [2] was > 100 µM. Further, the 90% effect concentration (IC90) under setting [3] was > 100 µM.

In the case of `S=C(Nc1ccccc1)Nc1ccc(Cl)cn1`, the pIC50 was 5.33. Also, the pIC50 under setting [1] was 4.04. The IC90 under setting [2] was > 100 µM. Besides, under setting [3], the IC90 was > 100 µM.

Take `COc1ccc(NC(=O)CCC2CCCC2)cc1OC`: the IC50 is > 100 µM (inactive). Further, under setting [1], the pIC50 is < 4.00. Moreover, the IC90 under setting [2] was > 100 µM. In addition, under setting [3], the IC90 was > 100 µM.

`O=C(NCC1COc2ccccc2O1)C1CCC(CNc2c(N3CCCCC3)c(=O)c2=O)CC1` (stereo not drawn): the IC50 is 24 µM (inactive). The same compound had a pIC50 under setting [1] of 4.34. Moreover, the IC90 under setting [2] worked out at 51.7 µM. Under setting [3], the concentration for an effect of 90% (IC90) is 26.7 µM.

For `O=C(Nc1cccc(Cl)c1N1CCOCC1)c1ccc([N+](=O)[O-])o1`, the negative logarithm of the IC50 (pIC50) is 6.04. The negative-log IC50 (pIC50) under setting [1] is 4.96. Further, under setting [2], the IC90 is > 100 µM. The same compound had an IC90 under setting [3] of 38.2 µM.

As for `Cc1ccc(CC(=O)Nc2nc3ccccc3[nH]2)cc1C`, the pIC50 was 5.20. Further, the pIC50 under setting [1] is < 4.00. For the same compound, the 90% effect concentration (IC90) under setting [2] is > 100 µM. The IC90 under setting [3] is > 25 µM.

In the case of `OCCOCCn1c(C2CCCN2c2nc(-c3ccc(F)cc3)cs2)nc2cc(Cl)c(Cl)cc21` (stereo not drawn), the IC50 was > 100 µM (inactive). The pIC50 under setting [1] was < 4.00. Under setting [2], the IC90 was > 100 µM. For the same compound, the IC90 under setting [3] is > 100 µM.

Consider `O=C(COC(=O)C1CC1)NCc1ccccc1Cl`, for which the pIC50 is 5.86. Moreover, the pIC50 under setting [1] was < 4.00. For the same compound, under setting [2], the IC90 is > 100 µM. For the same compound, the IC90 under setting [3] is > 100 µM.

Consider `COc1cc(/C=C/C(=O)OCC(=O)Nc2ccc(Cl)cn2)ccc1O`, for which the pIC50 was 4.40. Also, under setting [1], the pIC50 was < 4.00. Also, under setting [2], the IC90 is > 100 µM. Also, the IC90 under setting [3] was > 100 µM.

Take `COc1cc(C(=O)Oc2cccnc2)cc(OC)c1OC`: the pIC50 was 5.24. Under setting [1], this compound had a pIC50 of 4.31. In addition, the IC90 under setting [2] is > 100 µM. The same compound showed an IC90 under setting [3] of 13.6 µM.

As to `Cc1cccc(-n2nc([N+](=O)[O-])c(=NC3CCN(Cc4ccccc4)CC3)n2O)c1`, the IC50 was 25.9 µM (inactive). The pIC50 under setting [1] is 4.34. Moreover, under setting [2], the 90% effect concentration (IC90) turned out to be 49 µM. Further, the 90% effect concentration (IC90) under setting [3] was found to be 30.5 µM.

On to `Cc1cc(C(=O)CN2C(=O)NC(C)(CC(C)C)C2=O)c(C)n1-c1ccc2c(c1)OCO2` (stereo not drawn), for which the IC50 is 70 µM (inactive). Besides, the pIC50 under setting [1] was 4.13. The compound also gave an IC90 under setting [2] of 99.9 µM. Under setting [3], the 90% effect concentration (IC90) amounted to 96.4 µM.

As for `O=C(c1ccc(-c2ccc(Cl)cc2)o1)N1CCN(S(=O)(=O)c2cccs2)CC1`, the IC50 was 95.2 µM (inactive). Further, the pIC50 under setting [1] is < 4.00. Also, the IC90 under setting [2] is > 100 µM. This compound also came in with an IC90 under setting [3] of 99.6 µM.

With `CC(C)C[C@H](NC(=O)c1nc[nH]c1C(=O)N1CCN(C(=O)OC(C)(C)C)CC1)C(=O)OCc1ccccc1`, the IC50 is 48.8 µM (inactive). The compound also had a pIC50 under setting [1] of 4.31. For the same compound, under setting [2], the 90% effect concentration (IC90) stood at 56.1 µM. Moreover, the IC90 under setting [3] was found to be 54.9 µM.

For the compound `CS(=O)(=O)N(Cc1ccc(Cl)cc1)c1ccc(C(=O)NCCC2=CCCCC2)cc1`, the IC50 was > 100 µM (inactive). Besides, the pIC50 under setting [1] is < 4.00. Besides, the IC90 under setting [2] was > 100 µM. Further, under setting [3], the IC90 is > 100 µM.

Consider `O=C(Nc1ccc(S(=O)(=O)N2CCCCC2)cc1)C1CCCN(C(=O)c2ccc(Cl)cc2)C1` (stereo not drawn), for which the IC50 is > 100 µM (inactive). In addition, the negative logarithm of the IC50 (pIC50) under setting [1] is < 4.00. Also, under setting [2], the IC90 is > 100 µM. The IC90 under setting [3] was > 100 µM.

Consider `O=c1c(O)c(-c2ccc3c(c2)OCO3)oc2ccccc12`, for which the negative logarithm of the IC50 (pIC50) was 5.67. Also, under setting [1], the pIC50 was < 4.00. In addition, the IC90 under setting [2] was > 100 µM. Besides, the IC90 under setting [3] is > 100 µM.

The record behind these values is PubChem BioAssay AID434987 (Southern Research Specialized Biocontainment Screening …, 2010).
